According to PMC3382598, “Functional Metagenomics Unveils a Multifunctional Glycosyl Hydrolase from the Family 43 Catalysing the Breakdown of Plant Polymers in the Calf Rumen” (PLoS ONE, 2012):

Test system: T1, R_09-02
T1 construct: recombinant in E. coli, His6-tag purification; tetramer approx. 200 kDa; second CDS of 3264 bp r_09 insert; W82, H301, R327 conserved residues; N-terminal GH43 domain plus C-terminal beta-sandwich (CBM6-like)
Assay: p-nitrophenol release at […] nm; Michaelis-Menten fit
Assay type: biochemical
Settings: pH 6.0 (20 mM sodium acetate), 34°C; read-out: K m (mM)^1

Row | Structure (SMILES) | Km
1 | O=[N+]([O-])c1ccc(O[C@@H]2O[C@H](CO)[C@H](O)[C@H](O)[C@H]2O)cc1 [pNPβGal] | 0.37 ± 0.12 mM
2 | O=[N+]([O-])c1ccc(O[C@@H]2OC[C@H](O)[C@H](O)[C@H]2O)cc1 [pNPαAp] | 6.98 ± 0.79 mM
3 | O=[N+]([O-])c1ccc(O[C@H]2O[C@H](CO)[C@@H](O[C@H]3O[C@H](CO)[C@@H](O)[C@H](O)[C@H]3O)[C@H](O)[C@H]2O)cc1 [pNPαMal] | 9.74 ± 0.41 mM
4 | O=[N+]([O-])c1ccc(O[C@@H]2O[C@@H](CO)[C@H](O)[C@H]2O)cc1 [pNPαAf] | 0.57 ± 0.15 mM
5 | O=[N+]([O-])c1ccc(O[C@@H]2OC[C@@H](O)[C@H](O)[C@H]2O)cc1 [pNPβX] | 4.4 ± 0.76 mM
6 | O=[N+]([O-])c1ccc(O[C@H]2O[C@H](CO)[C@@H](O)[C@H](O)[C@H]2O)cc1 [pNPαG] | 4.84 ± 1.27 mM

Test system: T1, R_09-02
Assay: released xylose, D-xylose assay kit; Michaelis-Menten fit
Assay type: biochemical
Settings: pH 6.0 (20 mM sodium acetate), 34°C; read-out: K m (mM)^1
Description: released xylose, D-xylose assay kit; Michaelis-Menten fit on R_09-02

Row | Structure (SMILES) | Km
7 | OC1OC[C@@H](O[C@@H]2OC[C@@H](O[C@@H]3OC[C@@H](O)[C@H](O)[C@H]3O)[C@H](O)[C@H]2O)[C@H](O)[C@H]1O (stereo partly drawn) [1,4-β-Xylotriose] | 0.29 ± 0.02 mM
8 | OC1[C@H](O)CO[C@@H](O[C@@H]2CO[C@@H](O[C@@H]3CO[C@@H](O[C@@H]4CO[C@@H](O[C@@H]5COC(O)[C@H](O)[C@H]5O)[C@H](O)C4O)[C@H](O)C3O)[C@H](O)C2O)[C@@H]1O (stereo partly drawn) [1,4-β-Xylopentaose] | 1.58 ± 0.19 mM
9 | OC1OC[C@@H](O[C@@H]2OC[C@@H](O[C@@H]3OC[C@@H](O[C@@H]4OC[C@@H](O)[C@H](O)[C@H]4O)[C@H](O)[C@H]3O)[C@H](O)[C@H]2O)[C@H](O)[C@H]1O (stereo partly drawn) [1,4-β-Xylotetraose] | 0.33 ± 0.07 mM
10 | OC1OC[C@@H](O[C@@H]2OC[C@@H](O)[C@H](O)[C@H]2O)[C@H](O)[C@H]1O (stereo partly drawn) [1,4-β-Xylobiose] | 0.012 ± 0.002 mM

Test system: T1, R_09-02
Assay: released arabinose, lactose/galactose (Rapid) assay kit; Michaelis-Menten fit
Assay type: biochemical
Settings: pH 6.0 (20 mM sodium acetate), 34°C; read-out: K m (mM)^1
Description: released arabinose, lactose/galactose (Rapid) assay kit; Michaelis-Menten fit on R_09-02

Row | Structure (SMILES) | Km
11 | OC[C@@H]1O[C@@H](OC[C@@H]2OC(O)[C@H](O)[C@H]2O)[C@H](O)[C@H]1O (stereo partly drawn) [1,5-α-L-Arabinobiose] | 0.027 ± 0.01 mM
12 | OC[C@@H]1O[C@@H](OC[C@@H]2O[C@@H](OC[C@@H]3O[C@@H](OC[C@@H]4OC(O)[C@H](O)[C@H]4O)[C@H](O)[C@H]3O)[C@H](O)[C@H]2O)[C@H](O)[C@H]1O (stereo partly drawn) [1,5-α-L-Arabinotetraose] | 4.23 ± 0.74 mM
13 | OC[C@@H]1O[C@@H](OC[C@@H]2O[C@@H](OC[C@@H]3OC(O)[C@H](O)[C@H]3O)[C@H](O)[C@H]2O)[C@H](O)[C@H]1O (stereo partly drawn) [1,5-α-L-Arabinotriose] | 0.1 ± 0.05 mM

Test system: T1, R_09-02
Assay: oligosaccharide hydrolysis, released sugar assay; Michaelis-Menten fit
Assay type: biochemical
Settings: pH 6.0 (20 mM sodium acetate), 34°C; read-out: K m (mM)^1
Description: oligosaccharide hydrolysis, released sugar assay; Michaelis-Menten fit on R_09-02

Row | Structure (SMILES) | Km
14 | OC[C@H]1O[C@H](OC[C@H]2O[C@H](O[C@]3(CO)O[C@H](CO)[C@@H](O)[C@@H]3O)[C@H](O)[C@@H](O)[C@@H]2O)[C@H](O)[C@@H](O)[C@H]1O [Raffinose] | 0.035 ± 0.004 mM
15 | OC[C@H]1O[C@H](OC[C@H]2O[C@H](OC[C@H]3O[C@H](O[C@]4(CO)O[C@H](CO)[C@@H](O)[C@@H]4O)[C@H](O)[C@@H](O)[C@@H]3O)[C@H](O)[C@@H](O)[C@H]2O)[C@H](O)[C@@H](O)[C@H]1O [Stachyose] | 1.43 ± 0.84 mM

Test system: T1, R_09-02
Assay: released glucose, glucose oxidase kit; Michaelis-Menten fit
Assay type: biochemical
Settings: pH 6.0 (20 mM sodium acetate), 34°C; read-out: K m (mM)^1
Description: released glucose, glucose oxidase kit; Michaelis-Menten fit on R_09-02

Row | Structure (SMILES) | Km
16 | OC[C@H]1O[C@@H](O[C@H]2[C@H](O)[C@@H](O)C(O)O[C@@H]2CO)[C@H](O)[C@@H](O)[C@H]1O (some centres unmarked) [Lactose] | 0.05 ± 0.0039 mM
17 | OC[C@H]1O[C@H](O[C@H]2[C@H](O)[C@@H](O)[C@@H](O[C@H]3[C@H](O)[C@@H](O)C(O)O[C@@H]3CO)O[C@@H]2CO)[C@H](O)[C@@H](O)[C@@H]1O (some centres unmarked) [Maltotriose] | 0.44 ± 0.13 mM
18 | OC[C@H]1O[C@H](O[C@H]2[C@H](O)[C@@H](O)[C@@H](O[C@H]3[C@H](O)[C@@H](O)[C@@H](O[C@H]4[C@H](O)[C@@H](O)[C@@H](O[C@H]5[C@H](O)[C@@H](O)C(O)O[C@@H]5CO)O[C@@H]4CO)O[C@@H]3CO)O[C@@H]2CO)[C@H](O)[C@@H](O)[C@@H]1O (some centres unmarked) [Maltopentaose] | 1.64 ± 0.21 mM
19 | OC[C@H]1O[C@H](O[C@H]2[C@H](O)[C@@H](O)C(O)O[C@@H]2CO)[C@H](O)[C@@H](O)[C@@H]1O (some centres unmarked) [Maltose] | 2.57 ± 0.19 mM
20 | OC[C@H]1O[C@H](O[C@H]2[C@H](O)[C@@H](O)[C@@H](O[C@H]3[C@H](O)[C@@H](O)[C@@H](O[C@H]4[C@H](O)[C@@H](O)C(O)O[C@@H]4CO)O[C@@H]3CO)O[C@@H]2CO)[C@H](O)[C@@H](O)[C@@H]1O (some centres unmarked) [Maltotetraose] | 0.53 ± 0.17 mM
